For assay [1], the species on record is Rattus norvegicus. Put plainly: Activity of rat glutaryl-co A dehydrogenase expressed in Escherichia coli BL21.
For assay [2], the species on record is Rattus norvegicus. In words: Ratio of Kcat to Km for rat glutaryl-co A dehydrogenase expressed in Escherichia coli BL21.
A short description of assay [3]: (§1) Inhibition of rat glutaryl-co A dehydrogenase by spectrophotometry.
The species named for assay [4] is Rattus norvegicus. The description is as §1. The following applies: for inhibition: TDE = time-dependent effect.
For assay [5], the species on record is Rattus norvegicus. Put plainly: Time-dependent inhibition of rat glutaryl-co A dehydrogenase after 160 mins by spectrophotometry.
The species entered for assay [6] is Rattus norvegicus. Put plainly: Irreversible inhibition of rat glutaryl-co A dehydrogenase by dialysis method.
Assay [7] is filed under the species Rattus norvegicus. In words: Irreversible inhibition of rat glutaryl-co A dehydrogenase by HPLC analysis.
The species named for assay [8] is Rattus norvegicus. Put plainly: Time-dependent inhibition of rat glutaryl-co A dehydrogenase after 30 mins by spectrophotometry.
The species entered for assay [9] is Rattus norvegicus. Put plainly: Activity of rat glutaryl-co A dehydrogenase E370A mutant expressed in Escherichia coli BL21.
The species named for assay [10] is Rattus norvegicus. In words: Activity of rat glutaryl-co A dehydrogenase E370Q mutant expressed in Escherichia coli BL21.

Active and inactive are the calls of the source. The calls are words filed in the database; no cut-off is given here.

Broadly, the Km is the substrate concentration at which the rate is half of its maximum. As usually defined, the Vmax is the top rate of the reaction or transport when substrate is in excess. For orientation: kcat means the number of substrate molecules converted per active site and unit of time at saturation. In the case of `CCCC/C=C\CC(=O)SCCNC(=O)CCNC(=O)C(O)C(C)(C)COP(=O)(O)OP(=O)(O)OC[C@H]1O[C@@H](n2cnc3c(N)ncnc32)[C@H](O)[C@@H]1OP(=O)(O)O` (stereo not given in full), in the assay filed under Rattus norvegicus [1], the Km amounted to 66 µM, the Vmax is 113 nmol/mg/min and the kcat turned out to be 0.083 s⁻¹. In the assay filed under Rattus norvegicus [2], the kcat/Km (10'-3/microM/s) was 1.3.
Consider `CCCCCC/C=C/CC(=O)SCCNC(=O)CCNC(=O)C(O)C(C)(C)COP(=O)(O)OP(=O)(O)OC[C@H]1O[C@@H](n2cnc3c(N)ncnc32)[C@H](O)[C@@H]1OP(=O)(O)O` (stereo not given in full), for which, in the assay listed under Rattus norvegicus [1], the Km worked out at 74 µM, the Vmax was 27 nmol/mg/min and the kcat worked out at 0.02 s⁻¹. Also, the kcat/Km in the assay listed under Rattus norvegicus [2] came out at 2.7 ×10⁻⁴ /µM/s.
A word on the Ki: it is the dissociation constant of the complex between target and ligand, obtained from inhibition or displacement. As a reminder, the inhibition is the share of the control response that was lost under treatment. In assay [3], `CCC/C=C/C#CC(=O)SCCNC(=O)CCNC(=O)C(O)C(C)(C)COP(=O)(O)OP(=O)(O)OC[C@H]1O[C@@H](n2cnc3c(N)ncnc32)[C@H](O)[C@@H]1OP(=O)(O)O` (stereo not given in full) gave a Ki of 43 µM. Further, the Kinact in the assay listed under Rattus norvegicus [4] is 0.024 min⁻¹. Further, the inhibition entry is “tde” in the assay listed under Rattus norvegicus [4] and 20% in the assay filed under Rattus norvegicus [5]. Besides, the inhibition result in the assay filed under Rattus norvegicus [6] and in the assay filed under Rattus norvegicus [7] was “Active” each time.
With `CCCC(=O)SCCNC(=O)CCNC(=O)C(O)C(C)(C)COP(=O)(O)OP(=O)(O)OC[C@H]1O[C@@H](n2cnc3c(N)ncnc32)[C@H](O)[C@@H]1OP(=O)(O)O` (stereo not given in full), in the assay filed under Rattus norvegicus [1], the Km stood at 12 µM and the kcat is 2.7 s⁻¹. The kcat/Km in the assay listed under Rattus norvegicus [2] came to 230000 M⁻¹ s⁻¹.
Regarding `CCCCCCCCCC(=O)SCCNC(=O)CCNC(=O)C(O)C(C)(C)COP(=O)(O)OP(=O)(O)OC[C@H]1O[C@@H](n2cnc3c(N)ncnc32)[C@H](O)[C@@H]1OP(=O)(O)O` (stereo not given in full), in the assay filed under Rattus norvegicus [1], the Km worked out at 54 µM and the kcat was 0.18 s⁻¹. Besides, the kcat/Km (10'-3/microM/s) in the assay listed under Rattus norvegicus [2] was determined as 3.3.
The compound `CCCCCC#CC(=O)SCCNC(=O)CCNC(=O)C(O)C(C)(C)COP(=O)(O)OP(=O)(O)OC[C@H]1O[C@@H](n2cnc3c(N)ncnc32)[C@H](O)[C@@H]1OP(=O)(O)O` (stereo not given in full) displayed a Ki in [3] of 18 µM. This compound came in with a Kinact in the assay filed under Rattus norvegicus [4] of 0.2 min⁻¹. For the same compound, the inhibition entry in the assay filed under Rattus norvegicus [4] is “tde”; in the assay listed under Rattus norvegicus [8], 2%. Also, the inhibition result in the assay listed under Rattus norvegicus [6] and in the assay filed under Rattus norvegicus [7] was “Active” in each case.
As for `CCCCCC(=O)SCCNC(=O)CCNC(=O)C(O)C(C)(C)COP(=O)(O)OP(=O)(O)OC[C@H]1O[C@@H](n2cnc3c(N)ncnc32)[C@H](O)[C@@H]1OP(=O)(O)O` (stereo not given in full), in the assay filed under Rattus norvegicus [1], the Km came to 20 µM and the kcat amounted to 2.1 s⁻¹. Moreover, the kcat/Km in the assay filed under Rattus norvegicus [2] amounted to 110000 M⁻¹ s⁻¹.
For `CC/C=C/CC(=O)SCCNC(=O)CCNC(=O)C(O)C(C)(C)COP(=O)(O)OP(=O)(O)OC[C@H]1O[C@@H](n2cnc3c(N)ncnc32)[C@H](O)[C@@H]1OP(=O)(O)O` (stereo not given in full), in the assay filed under Rattus norvegicus [1], the Km was determined as 51 µM, the Vmax came to 136 nmol/mg/min and the kcat was 0.099 s⁻¹. In the assay listed under Rattus norvegicus [2], the kcat/Km (10'-3/microM/s) was determined as 1.9.
Regarding `CC/C=C\CC(=O)SCCNC(=O)CCNC(=O)C(O)C(C)(C)COP(=O)(O)OP(=O)(O)OC[C@H]1O[C@@H](n2cnc3c(N)ncnc32)[C@H](O)[C@@H]1OP(=O)(O)O` (stereo not given in full), the kcat in the assay filed under Rattus norvegicus [9] is 0.00078 s⁻¹. For the same compound, in the assay filed under Rattus norvegicus [1], the Km amounted to 49 µM, the Vmax was 331 nmol/mg/min and the kcat stood at 0.24 s⁻¹. Moreover, the kcat/Km (10'-3/microM/s) in the assay filed under Rattus norvegicus [2] is 4.9. Besides, the kcat in the assay filed under Rattus norvegicus [10] worked out at 0.0021 s⁻¹.
On to `CCCCCCCC(=O)SCCNC(=O)CCNC(=O)C(O)C(C)(C)COP(=O)(O)OP(=O)(O)OC[C@H]1O[C@@H](n2cnc3c(N)ncnc32)[C@H](O)[C@@H]1OP(=O)(O)O` (stereo not given in full), for which, in the assay filed under Rattus norvegicus [1], the Km was found to be 28 µM and the kcat came out at 1.1 s⁻¹. For the same compound, the kcat/Km (10'-2/microM/s) in the assay listed under Rattus norvegicus [2] is 3.9.
Regarding `CCCC/C=C/CC(=O)SCCNC(=O)CCNC(=O)C(O)C(C)(C)COP(=O)(O)OP(=O)(O)OC[C@H]1O[C@@H](n2cnc3c(N)ncnc32)[C@H](O)[C@@H]1OP(=O)(O)O` (stereo not given in full), in the assay filed under Rattus norvegicus [1], the Km turned out to be 58 µM, the Vmax was determined as 56 nmol/mg/min and the kcat was determined as 0.041 s⁻¹. In addition, in the assay listed under Rattus norvegicus [2], the kcat/Km is 7.1 ×10⁻⁴ /µM/s.
Regarding `CCCCCC/C=C\CC(=O)SCCNC(=O)CCNC(=O)C(O)C(C)(C)COP(=O)(O)OP(=O)(O)OC[C@H]1O[C@@H](n2cnc3c(N)ncnc32)[C@H](O)[C@@H]1OP(=O)(O)O` (stereo not given in full), in the assay filed under Rattus norvegicus [1], the Km came out at 88 µM, the Vmax was determined as 62 nmol/mg/min and the kcat amounted to 0.046 s⁻¹. Besides, the kcat/Km in the assay listed under Rattus norvegicus [2] amounted to 5.2 ×10⁻⁴ /µM/s.

Source of the values: ChEMBL document CHEMBL1949611, “Functional characterization of rat glutaryl-CoA dehydrogenase and its comparison with straight-chain acyl-CoA dehydrogenase” (Bioorg Med Chem Lett, 2011).
